Results on 46 compounds are retold here after patent US11040954B1, “CXCR3 receptor agonists” (RECEPTOS LLC, priority 2016, dated 2021).

This test concerns the target T1, CXCR3 (Homo sapiens, UniProt P49682).
T1 construct: host or cells: CHO-K1 (cAMP Hunter CHOK1 CXCR3 Gi cell line)
T1 sequence (P49682 1-368): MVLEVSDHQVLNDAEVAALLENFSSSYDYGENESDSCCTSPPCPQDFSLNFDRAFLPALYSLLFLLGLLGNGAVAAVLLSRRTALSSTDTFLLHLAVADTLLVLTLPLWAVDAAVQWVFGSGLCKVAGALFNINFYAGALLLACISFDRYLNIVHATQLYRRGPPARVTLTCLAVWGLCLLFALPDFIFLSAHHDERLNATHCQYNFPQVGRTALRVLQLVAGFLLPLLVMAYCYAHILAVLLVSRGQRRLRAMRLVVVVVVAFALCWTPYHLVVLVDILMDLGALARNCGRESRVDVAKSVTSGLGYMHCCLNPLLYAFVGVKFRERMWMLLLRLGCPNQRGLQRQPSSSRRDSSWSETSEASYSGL
Description: CXCR3 cAMP agonist assay (cAMP Hunter CHOK1 CXCR3 Gi cell line, forskolin-stimulated, HitHunter cAMP detection). It is filed as cell-based. To be noted: cAMP Hunter CHOK1 CXCR3 Gi cells, 20 μM forskolin, 30 minutes; read-out: Activity (CXCR3 cAMP agonist assay compound EC50). On the procedure:
The cAMP Hunter™ CHOK1 CXCR3 Gi cell line was purchased from DiscoveRx. Cells were seeded into a 96-well white assay plate at 50,000 cells/well/94 μl assay buffer (Hank's Buffered Saline Solution, 10 mM HEPES, 0.1% fatty acid-free BSA, pH 7.4) and immediately assayed in suspension. Forskolin was added to 20 μM (5 μl of 400 μM stock) simultaneously with a 12-point dose response curve of compound at 0-10 μM (1 μl of 100× stock in 100% DMSO), and cells were incubated for 30 minutes. A cAMP standard curve is run as an assay control. A CXCL11 dose response was included to determine maximum efficacy. Direct detection of cAMP was carried out using the DiscoveRx HitHunter cAMP kit according to manufacturer's instructions, and luminescence was read using a SpectraMax M5 plate reader.
`Cc1cc(NC(=O)[C@H](CCN)NC(=O)[C@@H]2Cc3ccccc3CN2C(=O)CCC(=O)N2CCCC[C@@H]2C)ccc1Cl` [Compound 12-56]: the EC50 is less than 50 nM. `Cc1cc(NC(=O)C(NC(=O)[C@@H]2Cc3ccccc3CN2C(=O)CCC(=O)c2ccccc2)C2CCNCC2)ccc1Cl` (mixture of isomers) [Compound 4-7]: the EC50 was more than 500 nM. In the case of `Cc1cc(NC(=O)[C@H](CCN2CCCCC2)NC(=O)[C@@H]2Cc3ccccc3CN2C(=O)CCC(=O)c2ccccc2)ccc1Cl` [Compound 3-9] it was less than 50 nM.

For the compound `Cc1cc(NC(=O)[C@H](CCN)NC(=O)[C@@H]2Cc3ccccc3CN2C(=O)CCC(=O)N2[C@H](C)CCC[C@H]2C)ccc1Cl` [Compound 12-141], the EC50 is less than 50 nM. In the case of `NCC[C@H](NC(=O)[C@@H]1Cc2ccccc2CN1C(=O)CCC(=O)c1ccccc1)C(=O)Nc1ccc2ccncc2c1` [Compound 2-42] it was more than 500 nM.

Consider `CCN(CC)C(=O)CCC(=O)N1Cc2ccccc2C[C@H]1C(=O)N[C@@H](CCN)C(=O)Nc1ccc(Cl)c(Cl)c1F` [Compound 15-42], for which the concentration for a half-maximal effect (EC50) fell in the range of 250 to 500 nM.

In the case of `Cc1ccc(NC(=O)[C@H](CCCCN)NC(=O)[C@@H]2Cc3ccccc3CN2C(=O)CCC(=O)c2ccccc2)cc1Cl` [Compound 1-27], the EC50 is less than 50 nM. On to `Cc1cc(NC(=O)[C@H](CCN)NC(=O)[C@@H]2Cc3ccccc3CN2C(=O)CCC(=O)N2CCC(C(C)(C)C)C2)ccc1Cl` (stereo partly shown) [Compound 12-75], for which the EC50 is less than 50 nM. In the case of `Cc1cc(NC(=O)[C@H](CCN)NC(=O)[C@@H]2Cc3ccccc3CN2C(=O)CCC(=O)N(C)c2ccccc2)ccc1Cl` [Compound 12-124] it was 250 to 500 nM; in that of `Cc1cc(NC(=O)[C@H](CCCCN)NC(=O)[C@@H]2Cc3ccccc3CN2C(=O)CCC(=O)c2cccc(C(F)(F)F)c2)ccc1Cl` [Compound 7-8], less than 50 nM. Then `CC1(C)CCN(C(=O)CCC(=O)N2Cc3cc(F)ccc3C[C@H]2C(=O)N[C@@H](CCN)C(=O)Nc2ccc(Cl)c(Cl)c2F)CC1` [Compound 15-60], with less than 50 nM; and `CC1(C)CCCCN1C(=O)CCC(=O)N1Cc2ccc(F)cc2C[C@H]1C(=O)N[C@@H](CCN)C(=O)Nc1ccc(Cl)c(Cl)c1F` [Compound 34-1, (S)—N—((S)-4-amino-1-((3,4-dichloro-2-fluorophenyl)amino)-1-oxobutan-2-yl)-2-(4-(2,2-dimethylpiperidin-1-yl)-4-oxobutanoyl)-6-fluoro-1,2,3,4-tetrahydroisoquinoline-3-carboxamide], with less than 50 nM; and `NCCCC[C@H](NC(=O)[C@@H]1Cc2ccccc2CN1C(=O)CCC(=O)c1ccccc1)C(=O)Nc1cccc(Cl)c1` [Compound 1-9], with 50 to 250 nM. In the case of `Cc1cc(NC(=O)[C@H](CCN)NC(=O)[C@@H]2Cc3ccccc3CN2C(=O)CCC(=O)N2CCC(C(C)C)C2)ccc1Cl` (stereo partly shown) [Compound 12-74] it was less than 50 nM; in that of `Cc1cc(NC(=O)[C@H](CCN)NC(=O)[C@@H]2Cc3ccccc3CN2C(=O)CCC(=O)N2CCN(c3ncccn3)CC2)ccc1Cl` [Compound 12-107], 50 to 250 nM; in that of `Cc1cc(NC(=O)[C@H](CCN)NC(=O)[C@@H]2Cc3ccccc3CN2C(=O)CCC(=O)NCCC(C)C)ccc1Cl` [Compound 12-80], less than 50 nM. As to `NCC[C@H](NC(=O)[C@@H]1Cc2ccccc2CN1C(=O)CCC(=O)c1ccccc1)C(=O)Nc1cccc2c1CCC2` [Compound 2-67], the EC50 was less than 50 nM. Then `Cc1cc(NC(=O)[C@H](CCN)NC(=O)[C@@H]2Cc3ccccc3CN2C(=O)CCC(=O)N2CCN(C)C[C@@H]2C)ccc1Cl` [Compound 12-116], with 50 to 250 nM.

Regarding `Cc1cc(NC(=O)[C@H](CCCC[N+](C)(C)C)NC(=O)[C@@H]2Cc3ccccc3CN2C(=O)CCC(=O)c2ccccc2)ccc1Cl` [Compound 6-3], the EC50 was 50 to 250 nM.

For the compound `Cc1ccc(NC(=O)[C@H](CCCCN)NC(=O)[C@@H]2Cc3ccccc3CN2C(=O)CCC(=O)c2ccccc2)cc1C` [Compound 1-29], the EC50 is less than 50 nM. For the compound `Cc1cc(NC(=O)[C@H](CCN)NC(=O)[C@@H]2Cc3ccccc3CN2C(=O)CCC(=O)N2CCC[C@H](C)C2)ccc1Cl` [Compound 12-58], the EC50 was less than 50 nM. On to `CCC(C)(C)NC(=O)CCC(=O)N1Cc2ccccc2C[C@H]1C(=O)N[C@@H](CCN)C(=O)Nc1ccc(Cl)c(C)c1` [Compound 12-92], for which the EC50 was in the range of 50 to 250 nM. Turning to `Cc1cc(NC(=O)[C@H](CCN)NC(=O)[C@@H]2Cc3ccccc3CN2C(=O)CCC(=O)N2CCC(C(F)(F)F)C2)ccc1Cl` (stereo partly shown) [Compound 12-52], the EC50 is less than 50 nM. `CCC1CN(C(=O)CCC(=O)N2Cc3ccccc3C[C@H]2C(=O)N[C@@H](CCN)C(=O)Nc2ccc(Cl)c(C)c2)CCN1C` (stereo partly shown) [Compound 12-104]: the EC50 is less than 50 nM. On to `NCC[C@H](NC(=O)[C@@H]1Cc2ccccc2CN1C(=O)CCC(=O)c1ccccc1)C(=O)Nc1cccc(-c2ccccc2)c1` [Compound 2-29], for which the EC50 was in the range of 250 to 500 nM. As for `NCC[C@H](NC(=O)[C@@H]1Cc2ccccc2CN1C(=O)CCC(=O)c1ccccc1)C(=O)Nc1cc(F)c(Cl)c(Cl)c1` [Compound 27-6], the EC50 was in the range of 50 to 250 nM. Then `CCC1CCN(C(=O)CCC(=O)N2Cc3ccccc3C[C@H]2C(=O)N[C@@H](CCN)C(=O)Nc2ccc(Cl)c(C)c2)CC1` [Compound 12-61], with less than 50 nM; and `Cc1cc(NC(=O)[C@H](CCCCN)NC(=O)[C@@H]2Cc3ccccc3CN2C(=O)CCC(=O)c2ccc(F)c(F)c2)ccc1Cl` [Compound 7-4], with 250 to 500 nM; and `Cc1cc(NC(=O)[C@H](CCN)NC(=O)[C@@H]2Cc3ccccc3CN2C(=O)CCC(=O)N2CCCC(C(C)C)C2)ccc1Cl` (stereo partly shown) [Compound 12-96], with less than 50 nM. Then `NCC[C@H](NC(=O)[C@@H]1Cc2ccccc2CN1C(=O)CCC(=O)N1CCC[C@H]1c1ccccc1)C(=O)Nc1ccc(Cl)c(Cl)c1F` [Compound 12-149], with less than 50 nM; and `Cc1ccc(NC(=O)[C@H](CCN2CCC(O)CC2)NC(=O)[C@@H]2Cc3ccccc3CN2C(=O)CCC(=O)c2ccccc2)c(F)c1` [Compound 28-3], with 250 to 500 nM; and `COc1c(NC(=O)[C@H](CCN)NC(=O)[C@@H]2Cc3ccccc3CN2C(=O)CCC(=O)c2ccccc2)ccc2c1CCCC2` [Compound 2-62], with 50 to 250 nM.

For `COc1cc2c(cc1NC(=O)[C@H](CCN)NC(=O)[C@@H]1Cc3ccccc3CN1C(=O)CCC(=O)c1ccccc1)CCC2` [Compound 1-39], the EC50 is less than 50 nM. On to `Cc1cc(NC(=O)[C@H](CCN)NC(=O)[C@@H]2Cc3ccccc3CN2C(=O)CCC(=O)N2CCCCC2C(C)C)ccc1Cl` (stereo partly shown) [Compound 12-121], for which the EC50 was less than 50 nM.

Regarding `Cc1cc(NC(=O)[C@H](CCN)NC(=O)[C@@H]2Cc3ccccc3CN2C(=O)CCC(=O)N2CC(F)C2)ccc1Cl` [Compound 12-19], the EC50 fell in the range of 250 to 500 nM.

Turning to `COc1cc(Cl)ccc1NC(=O)[C@H](CCN)NC(=O)[C@@H]1Cc2ccccc2CN1C(=O)CCC(=O)c1ccccc1` [Compound 13-4], the EC50 was 50 to 250 nM.

Regarding `Cc1cc(NC(=O)[C@H](CCN)NC(=O)[C@@H]2Cc3ccccc3CN2C(=O)CCC(=O)N2CCC3CCCCC32)ccc1Cl` (stereo partly shown) [Compound 12-95], the EC50 was less than 50 nM. In the case of `COc1cc(F)ccc1NC(=O)[C@H](CCN)NC(=O)[C@@H]1Cc2ccccc2CN1C(=O)CCC(=O)c1ccccc1` [Compound 13-6], the EC50 is more than 500 nM.

For `[N-]=[N+]=NCC[C@H](NC(=O)[C@@H]1Cc2ccccc2CN1C(=O)CCC(=O)c1ccccc1)C(=O)Nc1ccc(Cl)c(Cl)c1F` [Compound 14-22, (S)—N—((S)-4-azido-1-((3,4-dichloro-2-fluorophenyl)amino)-1-oxobutan-2-yl)-2-(4-oxo-4-phenylbutanoyl)-1,2,3,4-tetrahydroisoquinoline-3-carboxamide], the EC50 was in the range of 250 to 500 nM. Then `NCC[C@H](NC(=O)[C@@H]1Cc2ccccc2CN1C(=O)CCC(=O)N1CCC2CCCCC21)C(=O)Nc1ccc(Cl)c(Cl)c1F` (stereo partly shown) [Compound 15-38], with less than 50 nM. Take `NCCCC[C@H](NC(=O)[C@@H]1Cc2ccccc2CN1C(=O)CCC(=O)c1ccccc1)C(=O)Nc1ccc(Cl)cc1` [Compound 1-2]: the EC50 was in the range of 250 to 500 nM. For the compound `Cc1cc(NC(=O)[C@H](CCN)NC(=O)[C@@H]2Cc3ccccc3CN2C(=O)CCC(=O)c2ccccc2)cc(Cl)c1Cl` [Compound 4-18], the EC50 lay within 50 to 250 nM. In the case of `Cc1cc(NC(=O)[C@H](CCN)NC(=O)[C@@H]2Cc3ccccc3CN2C(=O)CCC(=O)NCc2ccccc2)ccc1Cl` [Compound 12-18] it was more than 500 nM. Consider `NCC[C@H](NC(=O)[C@@H]1Cc2ccccc2CN1C(=O)CCC(=O)c1ccccc1)C(=O)Nc1cc2c(cc1Cl)CCC2` [Compound 2-73], for which the 50% effective concentration (EC50) is less than 50 nM.

Take `Cc1cc(NC(=O)[C@H](CCN)NC(=O)[C@@H]2Cc3ccccc3CN2C(=O)CCC(=O)N2CCC(C#N)CC2)ccc1Cl` [Compound 12-44]: the EC50 is less than 50 nM. Then `CCc1cc(Cl)c(Cl)cc1NC(=O)[C@H](CCN)NC(=O)[C@@H]1Cc2ccccc2CN1C(=O)CCC(=O)c1ccccc1` [Compound 2-30], with 50 to 250 nM.

For orientation: EC50 means the midpoint of the concentration-response curve.
